What all share (format): cell-based
Assay [1] concerns TNFα. Description: TNFα counter-screen in LPS and nigericin stimulated Kupffer cells. The following applies: human Kupffer cells. As for the experimental part: (§1) Human Kupffer cells (KCs), specialized liver macrophages residing in […], were obtained by gradient isolation from liver specimens harvested post-mortem by Samsara Sciences. Cells were obtained through an IRB approved donor program by Samsara Sciences and all donors tested negative for bacterial and viral infections.
(§2) Fresh or cryopreserved PMBCs were seeded in V-bottom 96-well plate at 0.5-1×10^5 cells per well and incubated overnight at 37° C. with 5% CO2 in RPMI 1640 medium with GlutaMAX supplement, 4.5 g/L D-glucose, 10% Fetal Bovine Serum (FBS), […] Sodium Pyruvate, 1% Penicillin/Streptomycin, 10 mM HEPES and 0.05 mM of β-mercaptoethanol. Freshly isolated or cryopreserved KCs cells were seeded in flat-bottom 96-well plates at 0.6-1.5×10^5 cells/well and incubated overnight at 37° C. 5% CO2 in RPMI 1640 Medium with GlutaMAX supplement, FBS, 1% Penicillin/Streptomycin and 10 mM HEPES. The following day, the cells were primed with 100 ng/mL of lipopolysaccharides (LPS; Sigma Aldrich) in FBS-free RPMI 1640 for 3 h. After the priming step, the media was removed and PBMCs were pre-incubated with serial concentrations of test compounds (0.00017-10 uM) or vehicle (DMSO) for 30 min in FBS-free media prior to addition of the NLRP3 activator. Cells were then stimulated with 10 uM Nigericin (Sigma Aldrich; InvivoGen) for 1.5 h. Plates were centrifuged at 1,500 rpm for 3 minutes to pellet cells and supernatant was transferred into new plates for subsequent experiments.
(§3) For ELISA assays cells were seeded into 96-well plates. Post study, supernatants were removed and the levels of mature IL-1β, IL18 and TNFα (Quantikine ELISA, R&D systems) were measured in cell conditioned media by ELISA according to manufacturer's instructions.
(§4) TNFα levels of LPS and nigericin stimulated cells were measured by HTRF assay (Cisbio, Bedford, MA). […] Measuring TNFalpha production also serves as a technical counter-screen to eliminate compounds that interfere with the HTRF reagents. Thus compounds that inhibit both IL-1β and TNFα levels are triaged for either being non-selective for inflammasome or interfering with the HTRF readout.

The test system of assay [2] is TNFα. Description: TNFα counter-screen in LPS and nigericin stimulated PBMCs. The following applies: human PBMCs. As for the experimental part:
Human peripheral blood mononuclear cells (PBMCs), consisting of lymphocytes (T, B and NK cells), monocytes and dendritic cells, were freshly isolated from human peripheral blood from healthy donors. Cells were obtained through an IRB approved donor program by iXCells Biotechnologies where all the donors were tested for bacterial and viral infections. Cells were purified from peripheral blood using ficoll gradient centrifugation.
as §2, §3, §4

Assay [3] addresses T1, NLRP3 inflammasome (Homo sapiens, UniProt Q96P20). Description: NLRP3 inflammasome activation assay in Kupffer cells, IL-1β release. Also noted: were freshly isolated from human peripheral blood from healthy donors; StemCells Technologies; host or cells: primary human PBMCs, LPS-primed, nigericin-stimulated. The following applies: LPS primed, nigericin, read-out: Kupffer IL-1 β IC50.
Source text: Some of the following assays were used to determine the inhibitory activity of the compounds on the NLRP3 inflammasome using a common inflammasome activation stimuli—nigericin.
as §1, §2, §3

In assay [4] the target is T1, NLRP3 inflammasome. Nature of the assay: THP-1 ASC-GFP speck assay. More on the design: host or cells: THP-1 ASC-GFP cells, PMA-differentiated, LPS-primed, nigericin-stimulated. The following applies: THP-1 ASC-GFP cells, PMA differentiated, LPS primed, 10 μM nigericin; read-out: THP1 ASC Speck IC50. The procedure, abridged: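 PMA-differentiated (500 ng/ml, overnight) THP-1 ASC-GFP cells primed with 1 μg/mL LPS for 3 h, preincubated 30 min with compound (top 40 μM, 2-fold, 20 points), then stimulated with 10 μM nigericin for 90 min at 37 °C. After fixation and Hoechst staining, imaging gave the percentage of cells bearing a GFP ASC speck.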

Assay [5] deals with T1, NLRP3 inflammasome. Nature of the assay: NLRP3 inflammasome activation assay in PBMCs, IL-1β release (ELISA / HTRF). Also noted: were freshly isolated from human peripheral blood from healthy donors; StemCells Technologies; host or cells: primary human PBMCs, LPS-primed, nigericin-stimulated. The following applies: LPS primed, 10 μM nigericin, read-out: PBMC IL-1β IC50. In a few lines:
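Human PBMCs primed with 100 ng/mL LPS for 3 h, pre-treated with compound for 30 min (0.00017–10 µM, or from 40 µM in 2-fold 20-point series), then stimulated with 10 µM nigericin for 1.5 h at 37 °C. Released IL-1β in supernatant quantified by ELISA or by HTRF (665/620 ratio, overnight RT).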

The next assay relates to PBMCs. Nature of the assay: CTG (CellTiter-Glo) viability assay in PBMCs. The following applies: human PBMCs, LPS and nigericin stimulated, read-out: PBMC CTG IC50. In a few lines:
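Human donor PBMCs were primed with 100 ng/mL LPS for 3 h, pre-treated with compound (0.00017–10 µM) for 30 min in FBS-free medium, then stimulated with 10 µM nigericin for 1.5 h. Viability was read as cellular ATP by CellTiter-Glo, a cytotoxicity counter-screen to IL-1β release.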

A further assay relates to Kupffer cells. Description: CTG (CellTiter-Glo) viability assay in Kupffer cells. The following applies: human Kupffer cells. As for the experimental part:
as §1, §2
Viability of compound treated cells was measured using CellTiter-Glo® assay (Promega, Madison, Wis.) that measures the ATP content of cells which is proportional to the number of live cells within a well. This is a counter-screen to establish that the reduction of IL-1β levels in LPS and nigericin stimulated and compound treated cells is not due to cytotoxicity, but rather through the inhibition of the inflammasome pathway. Compounds inhibiting NRLP3 inflammasome activation ultimately increase the viability of LPS and nigericin stimulated cells by blocking NLRP3 mediated pyroptosis that would otherwise lead to cell lysis.

pIC50: −log10 of the molar value.

T1 sequence (Q96P20 whole entry): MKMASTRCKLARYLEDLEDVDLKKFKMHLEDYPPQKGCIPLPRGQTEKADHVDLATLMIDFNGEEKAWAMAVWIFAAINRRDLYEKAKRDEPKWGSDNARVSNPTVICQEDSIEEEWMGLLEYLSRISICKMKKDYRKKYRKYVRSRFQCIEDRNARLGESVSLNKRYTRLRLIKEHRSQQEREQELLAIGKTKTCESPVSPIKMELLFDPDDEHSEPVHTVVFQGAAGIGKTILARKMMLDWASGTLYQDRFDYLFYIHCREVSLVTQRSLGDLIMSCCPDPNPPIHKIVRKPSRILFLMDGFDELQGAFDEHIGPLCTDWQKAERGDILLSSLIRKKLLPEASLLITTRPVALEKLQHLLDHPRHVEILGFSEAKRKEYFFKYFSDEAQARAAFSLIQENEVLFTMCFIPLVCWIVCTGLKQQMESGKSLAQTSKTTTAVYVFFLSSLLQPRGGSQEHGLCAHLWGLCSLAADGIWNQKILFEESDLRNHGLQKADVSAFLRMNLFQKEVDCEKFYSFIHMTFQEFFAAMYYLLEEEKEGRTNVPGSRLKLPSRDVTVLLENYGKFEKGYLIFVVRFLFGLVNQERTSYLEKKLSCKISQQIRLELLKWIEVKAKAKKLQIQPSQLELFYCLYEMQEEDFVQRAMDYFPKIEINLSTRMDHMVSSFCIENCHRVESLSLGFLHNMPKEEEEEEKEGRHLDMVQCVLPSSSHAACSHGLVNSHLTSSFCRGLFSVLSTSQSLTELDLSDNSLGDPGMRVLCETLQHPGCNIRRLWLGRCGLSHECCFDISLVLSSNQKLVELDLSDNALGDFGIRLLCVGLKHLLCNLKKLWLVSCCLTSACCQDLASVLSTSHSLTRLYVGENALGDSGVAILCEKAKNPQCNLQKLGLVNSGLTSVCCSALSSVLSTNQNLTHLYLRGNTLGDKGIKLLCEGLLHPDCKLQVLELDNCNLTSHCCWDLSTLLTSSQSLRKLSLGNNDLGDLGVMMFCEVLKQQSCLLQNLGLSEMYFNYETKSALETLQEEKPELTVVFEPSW

Consider `CNC1COc2c(S(N)(=O)=NC(=O)Nc3c4c(cc5c3CCC5)CCC4)cnn2C1` (single isomer, unassigned) [Example 26], for which the pIC50 is less than 5.00 in the assay on TNFα [1]; less than 5.00 in the assay with TNFα [2] (PBMC); 7.70 at NLRP3 inflammasome [3]; 8.01 at NLRP3 inflammasome [4]; 8.12 on NLRP3 inflammasome [5]; 8.70 with PBMCs. Besides, the pIC50 in the assay on Kupffer cells is 7.68.
Take `COC1COc2c(S(N)(=O)=NC(=O)Nc3c4c(cc5c3CCC5)CCC4)cnn2C1` (single isomer, unassigned) [Example 20]: the pIC50 in the assay on TNFα [1] is less than 5.00; in the assay on TNFα [2] (read-out: PBMC TNFα IC50) it was less than 5.00; on NLRP3 inflammasome [3], more than 7.00; on NLRP3 inflammasome [5], 8.40; with PBMCs, 7.72; in the assay on Kupffer cells, more than 7.00.

The values above are taken from patent US12234245B2, “Sulfonimidamide compounds as inhibitors of interleukin-1 activity” (Genentech, Inc., priority 2018, dated 2025).
